Primed or numbered codes have the meaning given here. *: point of attachment. NHPhenethyl = c1ccc(CCN*)cc1; Bz′ = not defined here; NHBn = c1ccc(CN*)cc1; Propionyl = CCC(=O)*; NHNHAc = CC(=O)NN*; NHiPr = CC(C)N*; NHNH2 = NN*; For = O=C*; NHOH = ON*
Key:
Type in all cases: in vivo, human
[1] = test system: periostitis of right upper tibia, osteoarthritis of left knee, left hip joint pain, lower back pain; assay: Example 87: pain relief at multiple sites in one subject, topical; details: for degree of analgesic effect / duration of pain relief / pain relief at the treated sites / time to pain relief: 0.8% (w/v) in WEP442, topical to the sites of pain; for duration of pain relief, right upper tibia: 0.8% (w/v) in WEP442, periostitis of right upper tibia
Source text: A caregiver subject, presented with (a) painful periostitis of the right upper tibia for about 3 months, (b) painful early osteoarthritis of the left knee for about 1 year, (c) painful left hip joint of about 6 months, and (d) lower back pain near the end of the work day for about 2 years.
Over the course of 16 days, this subject evaluated the analgesic efficacy of eight (8) endomorphin-2 tetrapeptide derivatives in WEP442 at a concentration of 0.8% (w/v) applied topically to the sites of pain.
The lower back pain returned toward the end of the following work day.
Relief of lower back pain lasted for 20-24 hours (4+ effect). […]
For the above same subject, the composition containing 0.8% (w/v) of N-Ac-Tyr-Pro-Phe-Phe-NHCH(CH3)2 (SEQ ID NO: 27) in WEP442 was topically applied to the right upper tibia, left knee and left hip.
For the above same subject, the composition containing 0.8% (w/v) of N-Fo-Tyr-Pro-Phe-Phe-NH2 (SEQ ID NO: 104) in WEP442 was topically applied to 3 sites. Relief of pain was variable. […] Relief of pain in the right upper tibia was complete in about 4 minutes, lasting for 12 hours.
For the above same subject, the composition containing 0.8% (w/v) of N-Bz-Tyr-Pro-Phe-Phe-NH2 (SEQ ID NO: 84) in WEP442 provided relief of pain within 2-4 minutes. On the left hip, the relief was complete, lasting for about 12 hours (4+ effect). On the left knee, relief was incomplete, about 50%, lasting for only about 3 hours (2+ effect). On the right upper tibia, relief was complete and lasted for about 12 hours (4+ effect).

[2] = test system: psoriatic arthritis of interphalangeal joints of the fingers; assay: Example 93: multiple derivatives evaluated for relief of pain associated with psoriatic arthritis, topical; details: 0.8% (w/v) in WEP442, topical to both hands
Source text: A subject with extensive plaque psoriasis and psoriatic arthritis of interphalangeal joints of the fingers evaluated multiple tetrapeptide derivatives for comparative effectiveness on relief of their painful fingers. Over the course of 4 weeks, this subject evaluated the analgesic efficacy of ten (10) endomorphin-2 tetrapeptide derivatives in WEP442 at a concentration of 0.8% (w/v) applied topically to both hands, which included all fingers.

[3] = test system: severe osteoarthritis of both knees; assay: Example 88: analgesic efficacy of eight derivatives on severe osteoarthritis, topical
Protocol: A subject with severe osteoarthritis of both knees for a duration of about 7 years evaluated numerous tetrapeptide derivatives over the past years. […] Over the course of 3 weeks, this subject evaluated the analgesic efficacy of eight (8) endomorphin-2 tetrapeptide derivatives in WEP442 at a concentration of 1% (w/v) applied topically to the knees.
Reapplication at the end of that time again provided the same effect. Application at bedtime provided relief of pain for 7 hours. The same results were achieved the next day (3+ to 4+ effect).
A second application, about 15 minutes later, provided somewhat more relief (2+ effect).
Application at 9:30 p.m. provided relief until 5:30 a.m., and similar results were achieved the next day (3+ to 4+ effect).
No modification of pain in the right knee, which had received application of vehicle WEP442 as a control, was detected. Application of the composition containing the tetrapeptide derivative to the right knee about 15 minutes later provided prompt relief of pain. Pain relief in both knees lasted for about 5 hours (3+ to 4+ effect).
Relief lasted for about 3 hours. Re-application at that time provided the same degree of pain relief in about 5 minutes, which lasted about another 3 hours (2+ effect).
For the above same subject, the composition containing 1% (w/v) of N-Fo-Tyr-Pro-Phe-Phe-NH2 (SEQ ID NO: 104) in WEP442 was applied to the left knee, and the composition containing 1% (w/v) of N-Bz-Tyr-Pro-Phe-Phe-NH2 (SEQ ID NO: 84) in WEP442 was applied to the right knee moments later. Relief of pain in both knees seemed equivalent, was detectable in 5-7 minutes and lasted for about 4 hours. This procedure was repeated the next day with about the same results. The degree of pain relief from both solutions was rated as 3+ effect.

[4] = 1% (w/v) in WEP442, topical to the knees
[5] = 0.8% (w/v) in WEP442, left knee
[6] = 0.8% (w/v) in WEP442, lower lumbar
[7] = 0.8% (w/v) in WEP442, right upper tibia

Row | Substance | degree of analgesic effect [1] | duration of pain relief [1] | pain relief at the treated sites [1] | time to pain relief [1] [min] | duration of pain relief [2] | pain relief [2] | time to pain relief [2] [min] | analgesic effect grade [3, 4] | pain relief [3, 4] | degree of analgesic effectiveness [2] | duration of pain relief [3, 4] | time to pain relief [3, 4] [min] | duration of pain relief, right upper tibia [1] | also measured
1 | N-Ac-Tyr-Pro-Phe-Phe-NHCH2C6H5 (Ac-YPFF-NHBn; SMILES CC(=O)N[C@@H](Cc1ccc(O)cc1)C(=O)N1CCC[C@H]1C(=O)N[C@@H](Cc1ccccc1)C(=O)N[C@@H](Cc1ccccc1)C(=O)NCc1ccccc1) | 4+ | ≥ 5 h | complete relief of pain | 3 to 4 | about 6 hours | substantial relief of pain | 3 to 5 | 1+ (1+ (25%): partial relief of pain for less than 4 hours) | little relief of pain |  |  |  |  | analgesic effect grade ([3]; 1% (w/v) in WEP442, second application about 15 minutes later): 2+ (2+ (50%): substantial but incomplete relief of pain for less than 4 hours)
2 | N-Ac-Tyr-Pro-Phe-Phe-NHCH2CH2C6H5 (Ac-YPFF-NHPhenethyl; SMILES CC(=O)N[C@@H](Cc1ccc(O)cc1)C(=O)N1CCC[C@H]1C(=O)N[C@@H](Cc1ccccc1)C(=O)N[C@@H](Cc1ccccc1)C(=O)NCCc1ccccc1) | 0 (zero represented no relief) |  | no detectable analgesic effect |  |  | no detectable analgesic effect |  | 0 | no detectable analgesic effect | 0 (zero represented no relief) |  |  |  | 
3 | N-Ac-Tyr-Pro-Phe-Phe-NHCH2CH3 (Ac-YPFF-NHEt; SMILES CCNC(=O)[C@H](Cc1ccccc1)NC(=O)[C@H](Cc1ccccc1)NC(=O)[C@@H]1CCCN1C(=O)[C@H](Cc1ccc(O)cc1)NC(C)=O) | 4+ | ≥ 5 h | complete relief of pain | 3 to 4 | about 7 hours | complete relief of pain | 1 to 2 |  | very good relief of pain | 4+ | 3 to 4 h | 3 to 5 |  | duration of pain relief ([3]; 1% (w/v) in WEP442, application at bedtime): 7 h
4 | N-Ac-Tyr-Pro-Phe-Phe-NHCH(CH3)2 (Ac-YPFF-NHiPr; SMILES CC(=O)N[C@@H](Cc1ccc(O)cc1)C(=O)N1CCC[C@H]1C(=O)N[C@@H](Cc1ccccc1)C(=O)N[C@@H](Cc1ccccc1)C(=O)NC(C)C) | 4+ | at least 4 hours | Complete relief of pain | 3 to 4 | 2 to 3 h | only minimal relief of pain | 5 to 6 | 2+ (2+ (50%): substantial but incomplete relief of pain for less than 4 hours) | moderate relief of pain |  | about 3 hours | ≤ 15 | 7 h | 
5 | N-Ac-Tyr-Pro-Phe-Phe-NHNHAc (Ac-YPFF-NHNHAc; SMILES CC(=O)NNC(=O)[C@H](Cc1ccccc1)NC(=O)[C@H](Cc1ccccc1)NC(=O)[C@@H]1CCCN1C(=O)[C@H](Cc1ccc(O)cc1)NC(C)=O) | 4+ | 8 to 24 h | complete relief of pain | 1 to 2 | about 7 hours | complete relief of pain | ≤ 2 |  | substantial relief of pain | 4+ | about 5 hours | 2 to 3 |  | 
6 | N-Ac-Tyr-Pro-Phe-Phe-NHOH (Ac-YPFF-{NHOH}; SMILES CC(=O)N[C@@H](Cc1ccc(O)cc1)C(=O)N1CCC[C@H]1C(=O)N[C@@H](Cc1ccccc1)C(=O)N[C@@H](Cc1ccccc1)C(=O)NO) | 4+ | ≥ 12 h | complete relief of pain | ≤ 1 | about 2 hours | complete relief of pain | 1 to 2 |  | very good relief of pain |  | about 5 hours | 3 to 4 |  | duration of relief of lower back pain ([1]; 0.8% (w/v) in WEP442, lower back): 20 to 24 h
7 | N-Bz-Tyr-Pro-Phe-Phe-NH2 ({Bz′}-YPFF-NH2) |  |  |  | 2 to 4 | about 10 hours | incomplete, but substantial relief of pain | 4 to 5 |  |  |  | about 4 hours |  | about 12 hours | degree of analgesic effect, left hip ([1]; 0.8% (w/v) in WEP442, left hip): 4+; duration of pain relief, left hip ([1]; 0.8% (w/v) in WEP442, left hip): about 12 hours; pain relief, left hip ([1]; 0.8% (w/v) in WEP442, left hip): complete; duration of pain relief, left knee [1, 5]: about 3 hours; degree of analgesic effect, lower lumbar pain [1, 6]: 4+; duration of pain relief, lower lumbar pain [1, 6]: about 4 hours; pain relief, lower lumbar pain [1, 6]: responded completely; degree of analgesic effect, right upper tibia [1, 7]: 4+; pain relief, right upper tibia [1, 7]: complete
8 | N-Fo-Tyr-Pro-Phe-Phe-NH2 (For-YPFF-NH2; SMILES NC(=O)[C@H](Cc1ccccc1)NC(=O)[C@H](Cc1ccccc1)NC(=O)[C@@H]1CCCN1C(=O)[C@H](Cc1ccc(O)cc1)NC=O) |  |  |  |  | 2 to 3 h | only minimal relief of pain | 5 to 6 |  |  |  | about 4 hours |  | 12 h | time to pain relief, left hip ([1]; 0.8% (w/v) in WEP442, left hip): about 5 minutes; pain relief, left knee [1, 5]: No relief of pain; pain relief, right upper tibia [1, 7]: complete; time to pain relief, right upper tibia [1, 7]: about 4 minutes
9 | N-Pa-Tyr-Pro-Phe-Phe-NHNH2 (Propionyl-YPFF-NHNH2; SMILES CCC(=O)N[C@@H](Cc1ccc(O)cc1)C(=O)N1CCC[C@H]1C(=O)N[C@@H](Cc1ccccc1)C(=O)N[C@@H](Cc1ccccc1)C(=O)NN) |  |  |  |  | about 7 hours | complete relief of pain | 2 to 3 |  |  | 4+ |  |  |  | 
10 | N-Pa-Tyr-Pro-Phe-Phe-NHOH (Propionyl-YPFF-{NHOH}; SMILES CCC(=O)N[C@@H](Cc1ccc(O)cc1)C(=O)N1CCC[C@H]1C(=O)N[C@@H](Cc1ccccc1)C(=O)N[C@@H](Cc1ccccc1)C(=O)NO) |  |  |  |  | about 7 hours | complete relief of pain | 2 to 3 |  |  | 4+ |  |  |  | 
